Assay results published in patent US9938811B2, “Method of enhancing fracture complexity using far-field divert systems” (Baker Hughes, LLC, priority 2013, dated 2018).

Assay: Dissolution in deionized water or HCl 15% (Example 1)
Assay type: physicochemical
Details: 20 hours at 180° F., then 3 hours at room temperature
Procedure: Phthalic anhydride (obtained from a commercial supplier) and Sample A (8 g of each) were first mixed with 100 mL deionized water or HCl 15% and maintained for 20 hours at 180° F., and then cooled down to room temperature and kept for 3 hours.

SMILES: O=C1OC(=O)c2ccccc21 [Commercial Phthalic Anhydride, Phthalic anhydride]
- Dissolved (%) (8 g in 100 mL HCl 15%): 4%
- Dissolved (%) (8 g in 100 mL deionized water): 6%
